Patent US8987195B2 (priority 2012, dated 2015)
Read-outs that look alike come from different tables or passages of the source.

Experiments:
HCV genotype 1b replicon = experiment: HCV replicon assay, genotype 1b replicon EC50; type: cell-based, Hepatitis C virus; conditions: Hepatitis C virus, genotype 1b replicon, read-out: EC50 [gt-1b]
How it was run: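 Stable neomycin phosphotransferase-encoding replicon cell lines, kept under G418 selection beforehand, were plated with a compound dilution series without G418 and incubated 24-48 hours. Replicon RNA was then quantified, or luciferase activity read. EC50 was calculated as percent of DMSO control by four-parameter fit.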

[1] = molecular target: HCV NS3/4A protease genotype 1b (Hepatitis C virus genotype 1b, UniProt P26663); experiment: HCV NS3/4A protease time-resolved fluorescence (TRF) assay, Ki against genotype 1b; type: biochemical; conditions: IC50 [gt-1b] (nM), NS3/4A genotype 1b, enzyme 0.2 nM
How it was run: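 Time-resolved fluorescence readout of NS3/4A cleavage of 25 nM europium-labelled peptide over 2.5 h at room temperature, enzyme levels set for signal/background 10–30 (0.2, 0.4, 0.025 nM for 1b, A156T, 3a). Ki by IC50=Ki(1+[S]/KM).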

COc1ccc2c3c(c(C4CC4)nc2c1)O[C@]1(CC3)C[C@H]2C(=O)N[C@]3(C(=O)NS(=O)(=O)C4(C)CC4)C[C@H]3/C=C\CCCCC[C@H](NC(=O)O[C@@H]3C[C@H](C)CC[C@H]3C(C)C)C(=O)N2C1 [Example 276, (1R,2S,5R)-5-methyl-2-(propan-2-yl)cyclohexyl [(2R,6S,12Z,13aS,14aR,16aS)-5′-cyclopropyl-8′-methoxy-14a-{[(1-methylcyclopropyl)sulfonyl]carbamoyl}-5,16-dioxo-1,1′,2′,5,6,7,8,9,10,11,13a,14,14a,15,16,16a-hexadecahydrospiro[cyclopropa[e]pyrrolo[1,2-a][1,4]diazacyclopentadecine-2,3′-pyrano[2,3-c]quinolin]-6-yl]carbamate]
EC50 (HCV genotype 1b replicon; HCOOH salt): 104 nM
IC50 ([1]; HCOOH salt): 3.97 nM

COc1ccc2c3c(c(C4CC4)nc2c1)O[C@]1(CC3)C[C@H]2C(=O)N[C@]3(C(=O)NS(=O)(=O)C4(C)CC4)C[C@H]3/C=C\CCCCC[C@H](NC(=O)OCCF)C(=O)N2C1 [Example 277, 2-fluoroethyl [(2R,6S,12Z,13aS,14aR,16aS)-5′-cyclopropyl-8′-methoxy-14a-{[(1-methylcyclopropyl)sulfonyl]carbamoyl}-5,16-dioxo-1,1′,2′,5,6,7,8,9,10,11,13a,14,14a,15,16,16a-hexadecahydrospiro[cyclopropa[e]pyrrolo[1,2-a][1,4]diazacyclopentadecine-2,3′-pyrano[2,3-c]quinolin]-6-yl]carbamate]
EC50 (HCV genotype 1b replicon; HCOOH salt): 81.6 nM
IC50 ([1]; HCOOH salt): 1.05 nM

COc1ccc2c3c(c(C4CC4)nc2c1)O[C@]1(CC3)C[C@H]2C(=O)N[C@]3(C(=O)NS(=O)(=O)C4(C)CC4)C[C@H]3/C=C\CCCCC[C@H](NC(=O)OC3CCOC3)C(=O)N2C1 (stereo partly drawn) [Example 278, tetrahydrofuran-3-yl [(2R,6S,12Z,13aS,14aR,16aS)-5′-cyclopropyl-8′-methoxy-14a-{[(1-methylcyclopropyl)sulfonyl]carbamoyl}-5,16-dioxo-1,1′,2′,5,6,7,8,9,10,11,13a,14,14a,15,16,16a-hexadecahydrospiro[cyclopropa[e]pyrrolo[1,2-a][1,4]diazacyclopentadecine-2,3′-pyrano[2,3-c]quinolin]-6-yl]carbamate]
EC50 (HCV genotype 1b replicon; HCOOH salt): 12.4 nM
IC50 ([1]; HCOOH salt): 0.027 nM

Cc1nc2ccc(OC(F)F)cc2c2c1O[C@]1(CC2)C[C@H]2C(=O)N[C@]3(C(=O)NS(=O)(=O)C4(C)CC4)C[C@H]3/C=C\CCCCC[C@H](NC(=O)OCC(C)(C)C)C(=O)N2C1 [Example 280, 2,2-dimethylpropyl [(2R,6S,12Z,13aS,14aR,16aS)-9′-(difluoromethoxy)-5′-methyl-14a-{[(1-methylcyclopropyl)sulfonyl]carbamoyl}-5,16-dioxo-1,1′,2′,5,6,7,8,9,10,11,13a,14,14a,15,16,16a-hexadecahydrospiro[cyclopropa[e]pyrrolo[1,2-a][1,4]diazacyclopentadecine-2,3′-pyrano[2,3-c]quinolin]-6-yl]carbamate]
EC50 (HCV genotype 1b replicon): 2.84 nM
IC50 [1]: 0.005 nM

COc1ccc2nc(C(C)C)c3c(c2c1)C(F)(F)C[C@]1(C[C@H]2C(=O)N[C@]4(C(=O)NS(=O)(=O)C5(C)CC5)C[C@H]4/C=C\CCCCC[C@H](NC(=O)OC(C)(C)CCS(=O)(=O)C(C)C)C(=O)N2C1)O3 [Example 281, 2-methyl-4-(propan-2-ylsulfonyl)butan-2-yl [(2S,6S,12Z,13aS,14aR,16aS)-1′,1′-difluoro-9′-methoxy-14a-{[(1-methylcyclopropyl)sulfonyl]carbamoyl}-5,16-dioxo-5′-(propan-2-yl)-1,1′,2′,5,6,7,8,9,10,11,13a,14,14a,15,16,16a-hexadecahydrospiro[cyclopropa[e]pyrrolo[1,2-a][1,4]diazacyclopentadecine-2,3′-pyrano[2,3-c]quinolin]-6-yl]carbamate]
EC50 (HCV genotype 1b replicon): 10.8 nM
IC50 [1]: 0.06 nM

Cc1nc2ccccc2c2c1O[C@]1(CC2)C[C@H]2C(=O)N[C@]3(C(=O)NS(=O)(=O)C4(C)CC4)C[C@H]3/C=C\CCCCC[C@H](NC(=O)NC(C)C)C(=O)N2C1 [Example 282, (2R,6S,12Z,13aS,14aR,16aS)-5′-methyl-N-[(1-methylcyclopropyl)sulfonyl]-5,16-dioxo-6-[(propan-2-ylcarbamoyl)amino]-1,1′,2′,6,7,8,9,10,11,13a,14,15,16,16a-tetradecahydrospiro[cyclopropa[e]pyrrolo[1,2-a][1,4]diazacyclopentadecine-2,3′-pyrano[2,3-c]quinoline]-14a(5H)-carboxamide]
EC50 (HCV genotype 1b replicon; HCOOH salt): 43.6 nM
IC50 ([1]; HCOOH salt): 0.018 nM

Cc1nc2ccccc2c2c1O[C@]1(CC2)C[C@H]2C(=O)N[C@]3(C(=O)NS(=O)(=O)C4(C)CC4)C[C@H]3/C=C\CCCCC[C@H](NC(=O)NC3CCCC3)C(=O)N2C1 [Example 283, (2R,6S,12Z,13aS,14aR,16aS)-6-[(cyclopentylcarbamoyl)amino]-5′-methyl-N-[(1-methylcyclopropyl)sulfonyl]-5,16-dioxo-1,1′,2′,6,7,8,9,10,11,13a,14,15,16,16a-tetradecahydrospiro[cyclopropa[e]pyrrolo[1,2-a][1,4]diazacyclopentadecine-2,3′-pyrano[2,3-c]quinoline]-14a(5H)-carboxamide]
EC50 (HCV genotype 1b replicon; HCOOH salt): 19 nM
IC50 ([1]; HCOOH salt): 0.012 nM

Cc1nc2ccccc2c2c1O[C@]1(CC2)C[C@H]2C(=O)N[C@]3(C(=O)NS(=O)(=O)C4(C)CC4)C[C@H]3/C=C\CCCCC[C@H](NC(=O)NCc3ccccc3)C(=O)N2C1 [Example 284, (2R,6S,12Z,13aS,14aR,16aS)-6-[(benzylcarbamoyl)amino]-5′-methyl-N-[(1-methylcyclopropyl)sulfonyl]-5,16-dioxo-1,1′,2′,6,7,8,9,10,11,13a,14,15,16,16a-tetradecahydrospiro[cyclopropa[e]pyrrolo[1,2-a][1,4]diazacyclopentadecine-2,3′-pyrano[2,3-c]quinoline]-14a(5H)-carboxamide]
EC50 (HCV genotype 1b replicon; HCOOH salt): 58.7 nM
IC50 ([1]; HCOOH salt): 0.038 nM

Cc1nc2ccccc2c2c1O[C@]1(CC2)C[C@H]2C(=O)N[C@]3(C(=O)NS(=O)(=O)C4(C)CC4)C[C@H]3/C=C\CCCCC[C@H](NC(=O)NC3CCCCC3)C(=O)N2C1 [Example 285, (2R,6S,12Z,13aS,14aR,16aS)-6-[(cyclohexylcarbamoyl)amino]-5′-methyl-N-[(1-methylcyclopropyl)sulfonyl]-5,16-dioxo-1,1′,2′,6,7,8,9,10,11,13a,14,15,16,16a-tetradecahydrospiro[cyclopropa[e]pyrrolo[1,2-a][1,4]diazacyclopentadecine-2,3′-pyrano[2,3-c]quinoline]-14a(5H)-carboxamide]
EC50 (HCV genotype 1b replicon; HCOOH salt): 10.3 nM
IC50 ([1]; HCOOH salt): 0.002 nM

CCNC(=O)N[C@H]1CCCCC/C=C\[C@@H]2C[C@@]2(C(=O)NS(=O)(=O)C2(C)CC2)NC(=O)[C@@H]2C[C@]3(CCc4c(c(C)nc5ccccc45)O3)CN2C1=O [Example 286, (2R,6S,12Z,13aS,14aR,16aS)-6-[(ethylcarbamoyl)amino]-5′-methyl-N-[(1-methylcyclopropyl)sulfonyl]-5,16-dioxo-1,1′,2′,6,7,8,9,10,11,13a,14,15,16,16a-tetradecahydrospiro[cyclopropa[e]pyrrolo[1,2-a][1,4]diazacyclopentadecine-2,3′-pyrano[2,3-c]quinoline]-14a(5H)-carboxamide]
EC50 (HCV genotype 1b replicon): 119 nM
IC50 [1]: 0.015 nM
